The text below walks through data of patent US7666898B2, “Multivalent indole compounds and use thereof as phospholipase-A2 inhibitors” (Ilypsa, Inc., priority 2005, dated 2010).

The target of data set [1] is porcine pancreatic secreted PLA2 (pps PLA2) (Sus scrofa, UniProt P00592). The following applies: reported literature data; cited from earlier work.
The target in data set [2] is T1, human non-pancreatic PLA2 (hnp PLA2) (Homo sapiens, UniProt P14555).
T1 sequence (P14555 21-144): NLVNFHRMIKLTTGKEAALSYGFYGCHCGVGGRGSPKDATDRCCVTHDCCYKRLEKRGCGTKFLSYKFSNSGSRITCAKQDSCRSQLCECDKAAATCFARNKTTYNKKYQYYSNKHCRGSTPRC
The following applies: reported literature data; cited from earlier work.

Data set [3] has as its target human pancreatic secreted PLA2 (hps PLA2) (Homo sapiens, UniProt P04054). The following applies: reported literature data; cited from earlier work.
For data set [4], the system named is C57BL/6J mouse model of obesity. Nature of the data set: Mouse diet-induced obesity model (Example 14). It counts as in vivo. The following applies: low fat control diet D12328, 25 or 90 mg/kg/d, vs low fat diet alone. The source says:
The high-fat diet-fed C57BL/6J mouse model of human diabetes, originally introduced by Surwit and colleagues (Surwit, R S, et al. (1988) “Diet-induced type II diabetes in C57BL/6J mice”, Diabetes 37: 1163-1167) is a widely accepted, clinically relevant, polygenic model that induces obesity, dyslipidemia, glucose- and insulin-resistance as early as 3 weeks after commencing the high fat diet (Winzell, M S and Ahren, B (2004) “The high-fat diet-fed mouse: a model for studying mechanisms and treatment of impaired glucose tolerance and type 2 diabetes”, Diabetes 53 Suppl 3: S215-219). This model was used to investigate the effects of indole and indole-related Test Articles. Avandia (rosiglitazone) was used as a control Test Article.
Female C57Black/6J mice (5-6 weeks old) were obtained from Jackson laboratories (Bar Harbor, Me.). […] Diet and water was provided ad libitum throughout the course of the study. Animals were acclimated for at least seven days, and then randomized by weight into twelve groups of eight animals each. Each group of animals was placed on diets with and without Test Articles as described in Table 12. All diets other than Laboratory Rodent Diet 5001 were provided by Research Diets (New Brunswick, N.J.).
In these studies and the accompanying figures, Diet D12328 from Research Diets is referred to as the “Low Fat” or Control diet/chow, while Diet D12331 from Research Diets is referred to as the “High Fat” diet. Groups 1-6 were fed diet D12328 that contained either no drug (Group 1) or varying amounts of Test Articles (Groups 2-6). Groups 7-12 were fed diet D12331 that contained either no drug (Group 7) or varying amounts of Test Articles (Groups 8-12). The Test Article content was calculated such that ad libitum consumption by the animals would deliver doses (in mg of Test Article per kg animal weight per day) approximating those listed in Table 12.
Animals were maintained on the diets for up to eleven weeks. Body weights were recorded weekly. Blood was drawn within 1-2 hrs of lights-on. without fasting. The serum was analyzed for glucose, total cholesterol, triglycerides (TG) and lysophospholipid (LPC) content.
Statistical analyses were performed using GraphPad Prism 4.03. (GraphPad Software, Inc., San Diego, Calif.). Two sets of statistical analyses were performed. First, the Low Fat Chow, no treatment group was compared by student's two-tailed T-test against the High Fat, High Sucrose diet, no treatment group. […] Second, all treatment groups on the High Fat, High Sucrose diet were compared to the no-treatment group on that diet by 1-way ANOVA, followed by a Dunnett's post-test.

The test system of data set [5] is LDL receptor knockout mice (B6.129S7-Ldlrtm1Her). In words: LDL receptor knockout mouse model (Example 15). It counts as in vivo. The following applies: low fat control diet D12328, 25 or 90 mg/kg/d, vs low fat diet alone. The source says:
Mice lack an enzyme found in humans, cholesterol ester transfer protein (CETP), which is responsible for the transfer of cholesterol from high density lipoproteins (HDL) to the ApoB-containing lipoproteins such as very low density lipoproteins (VLDL) and low density lipoproteins (LDL). Consequently, LDL cholesterol levels in wild-type mice are very low compared to those seen in humans. The low density lipoprotein receptor (LDLR) is involved with clearing LDL and lipoprotein remnants containing apoE. If the LDLR is inactivated, LDL cholesterol levels rise to levels seen in humans. On a normal rodent diet, the LDL cholesterol levels in LDLR deficient mice are elevated compared to wild-type mice. If the LDLR deficient mice are fed a Western-type diet containing elevated levels of fats and cholesterol, then the total cholesterol and LDL cholesterol levels become highly elevated and can exceed 1000 mg/dL and 300 mg/dL, respectively. This model was used to investigate the effects of indole and indole-related Test Articles. Avandia (rosiglitazone) and Zetia (ezetimibe) were used as control test articles.
Male LDL receptor knockout mice (B6.129S7-Ldlrtm1Her) were obtained from Jackson Labs (Bar Harbor, Me.). […] Diet and water was provided ad libitum throughout the course of the study. Animals were acclimated for at least seven days, and then randomized by body weight into fourteen groups of seven animals each. Each group of animals was placed on diets with and without Test Articles as described in Table 13. All diets other than Laboratory Rodent Diet 5001 were provided by Research Diets (New Brunswick, N.J.).
In these studies and the accompanying figures, Diet D12328 from Research Diets is referred to as the “Low Fat” or Control diet, while Diet D12079B from Research Diets is referred to as the “Western” diet. Groups 1-7 were fed diet D12328 that contained either no drug (Group 1) or varying amounts of Test Articles (Groups 2-7). Groups 8-14 were fed diet D12079 that contained either no drug (Group 8) or varying amounts of Test Articles (Groups 9-14). The Test Article content was calculated such that ad libitum consumption by the animals would deliver doses (in mg of Test Article per Kg animal weight per day) approximating those listed in Table 13.
Animals were maintained on the diets for eight weeks. Body weights were recorded weekly. Blood was drawn within 1-2 hrs of lights-on, without fasting. The serum was analyzed for total cholesterol, LDL cholesterol, HDL cholesterol, triglycerides (TG), free fatty acid (FFA) and lysophospholipid (LPC) content.
Statistical analyses were performed using GraphPad Prism 4.03. (GraphPad Software, Inc., San Diego, Calif.). Two sets of statistical analyses were performed. […]

The nature of data set [6]: Toxicology, 5-day daily oral gavage. The format is in vivo, mice. The following applies: 5 consecutive days. The source says: The purpose of this study was to evaluate the toxicity of indole and indole-related Test Articles when administered daily via oral gavage to mice for 5 consecutive days.
Assessment of toxicity was based on mortality; clinical signs, body weight, food consumption, clinical pathology, and macroscopic pathology data.

The target of data set [7] is T2, mouse group 1B PLA2 (mps PLA2) (Mus musculus, UniProt Q9Z0Y2).
T2 construct: made in house; host or cells: E. coli
In words: Fluorimetric PLA2 inhibition assay, mouse (Example 8). The format is biochemical.
From the text: (§1) In this example, a fluorimetric assay procedure was used to evaluate the indole and indole-related compounds of the invention as inhibitors of group 1B phospholipase A2 (PLA2) from human, mouse and porcine.
(§2) In general, this assay used a phosphatidylmethanol substrate with a pyrene fluorophore on the terminal end of the sn-2 fatty acyl chain. Without being bound by theory, close proximity of the pyrenes from neighboring phospholipids in a phospholipid vesicle caused the spectral properties to change relative to that of monomeric pyrene. Bovine serum albumin was present in the aqueous phase and captured the pyrene fatty acid when it is liberated from the glycerol backbone owing to the PLA2-catalyzed reaction. […] The effect of a given inhibitor and inhibitor concentration on human, mouse and porcine phospholipase was determined.
(§3) Recombinant human and mouse group 1B PLA2 were cloned and expressed in E. coli as insoluble inclusion bodies. The inclusion bodies were isolated and purified by sonicating cell pellet in lysis buffer (50 mM Tris-HCl pH 7.0, 250 mM NaCl, 0.5% Triton 100), centrifugation at 12,000×g, and washing three times in washing buffer (20 mM Tris-HCl pH 7.0, 250 mM NaCl, 0.5% Triton 100). Then the inclusion bodies were dissolved in dissolving buffer (50 mM Tris-HCl pH 7.0, 250 mM NaCl, 6 M Guanidine-HCl, 1 mM DTT) and dialyzed four times against 10 volumes of refolding buffer (20 mM Tris-HCl pH 7.0, 250 mM NaCl, 0.5M Guanidine-HCl, 5% (w/w) Glycerol, 2 mM reduced glutathione and 0.4 mM oxidized glutathione) at 4° C. The correctly refolded proteins were concentrated using Amicon Stirred cell under nitrogen pressure (<70 psi) and dialyzed against 10 volumes of 50 mM Tris-HCl pH 7.0, 250 mM NaCl and 5% (w/w) glycerol. Human and mouse group 1B PLA2 were further purified by High S ion exchange and gel filtration columns.
(§4) The following reagents were prepared: • 1. PPyrPM stock solution (1 mg/ml) in toluene:isopropanol (1:1) • 2. […]
(§5) The following procedure was performed to evaluate the inhibitory potency of the evaluated compounds. • 1. […]

Data set [8] deals with T3, human group 1B PLA2 (hps PLA2) (Homo sapiens, UniProt P04054).
T3 construct: made in house; host or cells: E. coli
Nature of the data set: Fluorimetric PLA2 inhibition assay, human (Example 8). It counts as biochemical.
From the text: as §1, §2, §3, §4, §5

Data set [9] addresses Porcine group 1 B phospholipase A2 (pps PLA2) (Sus scrofa, UniProt P00592). Nature of the data set: Fluorimetric PLA2 inhibition assay, porcine (Example 8). The following applies: read-out: ILYPSA IC50 (μM) pps PLA2; PPyrPM vesicles, 37° C.
From the text: as §1, §2
The following reagents and equipments were obtained from commercial vendors: • 1. Porcine group 1 B phospholipase A2 • 2. 1-hexadecanoyl-2-(1-pyrenedecanoyl)-sn-glycero-3-phosphomethanol (PPyrPM) • 3. Bovine serum albumin (BSA, fatty acid free) • 4. 2-Amino-2-(hydroxymethyl)-1,3-propanediol, hydrochloride (Tris-HCl) • 5. […]
as §5
Evaluated compounds were tested in duplicate and their values were averaged to plot the inhibition curve and calculate the IC50. […]
The nature of data set [10]: Mouse pharmacokinetic study (Example 13). The following applies: for bioavailability: male, CD-1, mouse, in vivo, po, 30 mg/kg.
Method: The plasma exposure of male CD-1 mice to indole and indole-related test articles (TAs) following intravenous (IV, 3 mg/kg) and oral (PO, 30 mg/kg) routes of administration was measured. This model was used to investigate the bioavailability of indole and indole-related TAs in mouse.
Two groups (N=18 and 27) of male CD-1 mice were used for the study.
The components were mixed by vortexing and sonicating in a warming bath for 60 minutes. Animals were fasted overnight prior to start of the study. On study day (1), formulations were sonicated for an hour to make sure that no visible particles were present prior to dosing, or if present were evenly distributed in suspension. Formulated test article were stirred continuously during dosing.
All animals were weighed on study day (1) and the body weights were recorded and used for dose calculation. […] Blood samples (0.5 mL) were collected at specified time intervals into labeled, yellow-capped Microtainer tubes. The tubes were centrifuged (8,000×g, 10 min). Serum was then pipetted off into labeled Eppendorf® tubes and frozen at −80° C. Clinical observations were recorded as needed.
Analysis of serum samples was performed by LC/MS/MS (Waters Quattro Premier, Milford, Mass.). Areas under curves (AUC) were calculated using Graphpad Prism Version 4. Bioavailability was calculated using the following equation: (Bioavailability)=(AUC0-t, oral/AUC0-t, iv)×(Doseiv/Doseoral)×100 where AUC0-t=total area under curve at the last measurable time point

Sequence of human pancreatic secreted PLA2 (hps PLA2) (P04054 23-148): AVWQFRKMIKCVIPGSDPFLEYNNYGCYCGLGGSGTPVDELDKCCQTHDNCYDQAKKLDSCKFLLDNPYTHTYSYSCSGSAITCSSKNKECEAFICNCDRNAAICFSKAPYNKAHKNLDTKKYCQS
Sequence of porcine pancreatic secreted PLA2 (pps PLA2) (P00592 23-146): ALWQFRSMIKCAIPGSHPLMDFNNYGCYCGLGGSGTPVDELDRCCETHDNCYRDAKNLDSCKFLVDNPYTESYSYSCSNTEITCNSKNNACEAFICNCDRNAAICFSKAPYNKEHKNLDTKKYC
T3 sequence (P04054 23-148): as the sequence (P04054 23-148) above
T2 sequence (Q9Z0Y2 23-146): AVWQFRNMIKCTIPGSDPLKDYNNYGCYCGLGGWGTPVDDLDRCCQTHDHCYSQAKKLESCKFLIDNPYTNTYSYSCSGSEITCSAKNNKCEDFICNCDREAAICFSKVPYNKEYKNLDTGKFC
Sequence of Porcine group 1 B phospholipase A2 (pps PLA2) (P00592 23-146): as the sequence (P00592 23-146) above

Usually IC50 stands for the point on the concentration scale where inhibition reaches its midpoint. Consider `Cc1c(CC(N)=O)c2cc(OCc3ccc(C(=O)O)cc3)ccc2n1Cc1ccccc1`, for which the IC50 in data set [1] is 7.5 µM; in [2], 0.147 ± 0.009 µM; in data set [3] it was 22.5 µM.

As to `NC(=O)Cc1c(Br)n(Cc2ccccc2)c2ccc(OCCCC(=O)O)cc12`, the figures for the IC50 in data set [1] and in [3] were 2.86 µM and 15.9 µM, respectively.

As for `NC(=O)Cc1c(Br)n(Cc2ccccc2)c2ccc(OCCCP(=O)(O)O)cc12`, the figures for the concentration for half-maximal inhibition (IC50) in data set [1] and in data set [3] were 2.2 µM and 6.2 µM, respectively.

In the case of `Cc1c(CC(=O)NN)c2cc(OCCCC(=O)O)ccc2n1Cc1ccccc1`, the “IC50 (μM) pps PLA2” value in [1] was “no activity”. For the same compound, the “IC50 (μM) hps PLA2” value in data set [3] is reported as “no activity”.

Regarding `CCc1c(C(=O)C(N)=O)c2c(OCC(=O)O)cccc2n1Cc1ccccc1-c1ccccc1`, the IC50 in data set [2] is 0.004 ± 0.001 µM; in data set [3] it was 0.062 µM.

Consider “2,2′,2″-(1,1′,1″-(12,12′,12″-(benzene-1,3,5-triyltris(oxy))tris(dodecane-12,1-diyl))tris(3-(2-amino-2-oxoacetyl)-2-methyl-1H-indole-4,1-diyl))tris(oxy)triacetic acid [ILY-v-32]”, for which the “effect in animals fed a low fat control diet containing test article” value (“effect” below) in [4] and in [5] was “No or little effect” in each case. In data set [6], the “clinical pathology data, treated groups vs vehicle control group” value is on record as “no differences”.

For the compound “2-(3-Aminooxalyl-1-{12-[3-aminooxalyl-4-(1-carboxy-2-methyl-propoxy)-2-methyl-indol-1-yl]-dodecyl}-2-methyl-1H-indol-4-yloxy)-3-methyl-butyric acid [ILY-v-44]”, the IC50 in data set [7] (PPyrPM vesicles, 37° C., read-out: ILYPSA IC50 (μM) mps PLA2) is 0.48 µM; in [8] (PPyrPM vesicles, 37° C., read-out: ILYPSA IC50 (μM) hps PLA2), 0.28 µM; in [9], 0.05 µM.

Turning to `Cc1c(C(=O)C(N)=O)c2c(OCC(=O)NS(=O)(=O)CCCC(=O)O)cccc2n1Cc1ccccc1` [ILY-IV-40, 4-[2-(3-Aminooxalyl-1-benzyl-2-methyl-1H-indol-4-yloxy)-acetylsulfamoyl]-butyric acid], the “Bioavailability (%)” value in data set [10] (PO 30 mg/kg vs IV 3 mg/kg, CD-1 mice, serum LC/MS/MS) worked out at 0.50%. Further, the “effect” value in [4] and in [5] was “No or little effect” throughout. Moreover, the “clinical pathology data, treated groups vs vehicle control group” value in data set [6] is “no differences”.

The term inhibition denotes how much of the control response was suppressed. Take `Cc1c(C(=O)C(N)=O)c2c(OC(Br)(C(N)=O)C(F)(F)F)cccc2n1Cc1ccccc1` (stereo not shown) [ILY-IV-53, 2-(3-Aminooxalyl-1-benzyl-2-methyl-1H-indol-4-yloxy)-2-bromo-3,3,3-trifluoro-propionamide]: the inhibition at 15 µM in data set [7] (read-out: ILYPSA % inhibition at 15 μM mps PLA2) was 49.7%; in [8] (read-out: ILYPSA % inhibition at 15 μM hps PLA2) it was 49%.

For `Cc1c(C(=O)C(N)=O)c2c(OCC(=O)O)cccc2n1CCCCCCCCCCCCSCCCCCCCCSCCCCCCCCCCCCn1c(C)c(C(=O)C(N)=O)c2c(OCC(=O)O)cccc21` [ILY-v-26, 2,2′-(1,1′-(12,12′-(Octane-1,8-diylbis(sulfanediyl))bis(dodecane-12,1-diyl))bis(3-(2-amino-2-oxoacetyl)-2-methyl-1H-indole-4,1-diyl))bis(oxy)diacetic acid], the “effect” value in data set [4] and in data set [5] was “No or little effect” in each case. Besides, in data set [6], the “clinical pathology data, treated groups vs vehicle control group” value is “no differences”.

As usually defined, the bioavailability is the share of a dose that reaches the circulation, judged against a reference dose that is usually intravenous. Read a low bioavailability as poor availability. Take `Cc1c(C(=O)C(N)=O)c2c(OCC(=O)O)cccc2n1CCCCCCCCCCCCOc1ccccc1OCCCCCCCCCCCCn1c(C)c(C(=O)C(N)=O)c2c(OCC(=O)O)cccc21` [ILY-v-27, [3-Aminooxalyl-1-(12-{2-[12-(3-aminooxalyl-4-carboxymethoxy-2-methyl-indol-1-yl)-dodecyloxy]-phenoxy}-dodecyl)-2-methyl-1H-indol-4-yloxy]-acetic acid]: the bioavailability in data set [10] came out at 1.49%.

In the case of `Cc1c(C(=O)C(N)=O)c2c(OCC(=O)O)cccc2n1CCCCCCCCCCCCOc1ccc(C(C)(C)c2ccc(OCCCCCCCCCCCCn3c(C)c(C(=O)C(N)=O)c4c(OCC(=O)O)cccc43)cc2)cc1` [ILY-v-30, 2,2′-(1,1′-(12,12′-(4,4′-(propane-2,2-diyl)bis(4,1-phenylene))bis(oxy)bis(dodecane-12,1-diyl))bis(3-(2-amino-2-oxoacetyl)-2-methyl-1H-indole-4,1-diyl))bis(oxy)diacetic acid], the “effect” value in data set [4] and in data set [5] was “No or little effect” in each case. In [6], the “clinical pathology data, treated groups vs vehicle control group” value is reported as “no differences”.

`Cc1c(C(=O)C(N)=O)c2c(OCC(=O)O)cccc2n1CCCCCCCCCCCCN(CCCCCCCCCCCCn1c(C)c(C(=O)C(N)=O)c2c(OCC(=O)O)cccc21)Cc1ccccc1` [ILY-v-31, 2,2′-(1,1′-(12,12′-(benzylazanediyl)bis(dodecane-12,1-diyl))bis(3-(2-amino-2-oxoacetyl)-2-methyl-1H-indole-4,1-diyl))bis(oxy)diacetic acid]: in [10], the bioavailability was 5.15%.
